Experimental data as given in patent US8192962B2, “Processes for detecting toxic substances” (Daikin Industries, Ltd., priority 2001, dated 2012).

Tested on: Unknown protein yeast genes
Assay: DNA chip mRNA expression in yeast, unknown protein yeast genes (Table 1)
Assay type: cell-based, Saccharomyces cerevisiae S288C
In short: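 Values are treated/untreated fluorescence ratios from a whole-genome yeast DNA chip hybridized over 12 hours at 65° C with Cy3- or Cy5-labelled cDNA from poly(A) mRNA. Log-phase S288C yeast in YPD at 25° C had received a single toxic chemical for two hours, dosed to slow growth without killing.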

S=C([S-])NCCNC(=S)[S-].[Zn+2] [(11), zinc N,N′-ethylenebis(dithiocarbamate)]
The level of expressed mRNA in the presence of chemical substance/The level of expressed mRNA in the absence of chemical substance (yeast gene YAL053W, incubated two hours with chemical substance): 2.3 | The level of expressed mRNA in the presence of chemical substance/The level of expressed mRNA in the absence of chemical substance (yeast gene YBL048W): 2.0 | The level of expressed mRNA in the presence of chemical substance/The level of expressed mRNA in the absence of chemical substance (yeast gene YBL107C): 2.9 | The level of expressed mRNA in the presence of chemical substance/The level of expressed mRNA in the absence of chemical substance (yeast gene YDL072C, incubated two hours with chemical substance): 1.4 | The level of expressed mRNA in the presence of chemical substance/The level of expressed mRNA in the absence of chemical substance (yeast gene YDL204W, incubated two hours with chemical substance): 3.2 | The level of expressed mRNA in the presence of chemical substance/The level of expressed mRNA in the absence of chemical substance (yeast gene YDL222C, incubated two hours with chemical substance): 2.6 | The level of expressed mRNA in the presence of chemical substance/The level of expressed mRNA in the absence of chemical substance (yeast gene YDR330W, incubated two hours with chemical substance): 0.9 | The level of expressed mRNA in the presence of chemical substance/The level of expressed mRNA in the absence of chemical substance (yeast gene YDR391C, incubated two hours with chemical substance): 1.9 | The level of expressed mRNA in the presence of chemical substance/The level of expressed mRNA in the absence of chemical substance (yeast gene YDR411C, incubated two hours with chemical substance): 1.3 | The level of expressed mRNA in the presence of chemical substance/The level of expressed mRNA in the absence of chemical substance (yeast gene YDR511W, incubated two hours with chemical substance): 1.2 | The level of expressed mRNA in the presence of chemical substance/The level of expressed mRNA in the absence of chemical substance (yeast gene YDR545W, incubated two hours with chemical substance): 0.7 | The level of expressed mRNA in the presence of chemical substance/The level of expressed mRNA in the absence of chemical substance (yeast gene YEL001C, incubated two hours with chemical substance): 1.2 | The level of expressed mRNA in the presence of chemical substance/The level of expressed mRNA in the absence of chemical substance (yeast gene YER004W, incubated two hours with chemical substance): 2.2 | The level of expressed mRNA in the presence of chemical substance/The level of expressed mRNA in the absence of chemical substance (yeast gene YER035W, incubated two hours with chemical substance): 1.4 | The level of expressed mRNA in the presence of chemical substance/The level of expressed mRNA in the absence of chemical substance (yeast gene YER079W, incubated two hours with chemical substance): 2.1 | The level of expressed mRNA in the presence of chemical substance/The level of expressed mRNA in the absence of chemical substance (yeast gene YER106W, incubated two hours with chemical substance): 1.0 | The level of expressed mRNA in the presence of chemical substance/The level of expressed mRNA in the absence of chemical substance (yeast gene YER158C, incubated two hours with chemical substance): 2.3 | The level of expressed mRNA in the presence of chemical substance/The level of expressed mRNA in the absence of chemical substance (yeast gene YER163C, incubated two hours with chemical substance): 1.6 | The level of expressed mRNA in the presence of chemical substance/The level of expressed mRNA in the absence of chemical substance (yeast gene YER175C, incubated two hours with chemical substance): 1.1 | The level of expressed mRNA in the presence of chemical substance/The level of expressed mRNA in the absence of chemical substance (yeast gene YFL006W, incubated two hours with chemical substance): 1.2 | The level of expressed mRNA in the presence of chemical substance/The level of expressed mRNA in the absence of chemical substance (yeast gene YFL010C, incubated two hours with chemical substance): 1.4 | The level of expressed mRNA in the presence of chemical substance/The level of expressed mRNA in the absence of chemical substance (yeast gene YFL024C): 0.6 | The level of expressed mRNA in the presence of chemical substance/The level of expressed mRNA in the absence of chemical substance (yeast gene YFL032W, incubated two hours with chemical substance): 1.1 | The level of expressed mRNA in the presence of chemical substance/The level of expressed mRNA in the absence of chemical substance (yeast gene YGL037C, incubated two hours with chemical substance): 3.9 | The level of expressed mRNA in the presence of chemical substance/The level of expressed mRNA in the absence of chemical substance (yeast gene YGL047W, incubated two hours with chemical substance): 1.9 | The level of expressed mRNA in the presence of chemical substance/The level of expressed mRNA in the absence of chemical substance (yeast gene YGL053W, incubated two hours with chemical substance): 1.3 | The level of expressed mRNA in the presence of chemical substance/The level of expressed mRNA in the absence of chemical substance (yeast gene YGL121C): 6.1 | The level of expressed mRNA in the presence of chemical substance/The level of expressed mRNA in the absence of chemical substance (yeast gene YGL218W): 0.1 | The level of expressed mRNA in the presence of chemical substance/The level of expressed mRNA in the absence of chemical substance (yeast gene YGR101W, incubated two hours with chemical substance): 2.0 | The level of expressed mRNA in the presence of chemical substance/The level of expressed mRNA in the absence of chemical substance (yeast gene YGR110W): 0.5 | The level of expressed mRNA in the presence of chemical substance/The level of expressed mRNA in the absence of chemical substance (yeast gene YGR130C, incubated two hours with chemical substance): 0.8 | The level of expressed mRNA in the presence of chemical substance/The level of expressed mRNA in the absence of chemical substance (yeast gene YGR142W): 2.3 | The level of expressed mRNA in the presence of chemical substance/The level of expressed mRNA in the absence of chemical substance (yeast gene YGR154C, incubated two hours with chemical substance): 1.5 | The level of expressed mRNA in the presence of chemical substance/The level of expressed mRNA in the absence of chemical substance (yeast gene YGR221C, incubated two hours with chemical substance): 0.5 | The level of expressed mRNA in the presence of chemical substance/The level of expressed mRNA in the absence of chemical substance (yeast gene YHR138C, incubated two hours with chemical substance): 1.6 | The level of expressed mRNA in the presence of chemical substance/The level of expressed mRNA in the absence of chemical substance (yeast gene YHR199C, incubated two hours with chemical substance): 1.9 | The level of expressed mRNA in the presence of chemical substance/The level of expressed mRNA in the absence of chemical substance (yeast gene YIL023C, incubated two hours with chemical substance): 1.1 | The level of expressed mRNA in the presence of chemical substance/The level of expressed mRNA in the absence of chemical substance (yeast gene YIL041W, incubated two hours with chemical substance): 1.4 | The level of expressed mRNA in the presence of chemical substance/The level of expressed mRNA in the absence of chemical substance (yeast gene YIL087C, incubated two hours with chemical substance): 2.8 | The level of expressed mRNA in the presence of chemical substance/The level of expressed mRNA in the absence of chemical substance (yeast gene YIL089W): 0.7 | The level of expressed mRNA in the presence of chemical substance/The level of expressed mRNA in the absence of chemical substance (yeast gene YJL057C, incubated two hours with chemical substance): 2.0 | The level of expressed mRNA in the presence of chemical substance/The level of expressed mRNA in the absence of chemical substance (yeast gene YJL066C, incubated two hours with chemical substance): 0.8 | The level of expressed mRNA in the presence of chemical substance/The level of expressed mRNA in the absence of chemical substance (yeast gene YJL082W, incubated two hours with chemical substance): 1.0 | The level of expressed mRNA in the presence of chemical substance/The level of expressed mRNA in the absence of chemical substance (yeast gene YJL151C, incubated two hours with chemical substance): 1.0 | The level of expressed mRNA in the presence of chemical substance/The level of expressed mRNA in the absence of chemical substance (yeast gene YJL152W, incubated two hours with chemical substance): 1.0 | The level of expressed mRNA in the presence of chemical substance/The level of expressed mRNA in the absence of chemical substance (yeast gene YJL161W, incubated two hours with chemical substance): 3.7 | The level of expressed mRNA in the presence of chemical substance/The level of expressed mRNA in the absence of chemical substance (yeast gene YJL171C, incubated two hours with chemical substance): 2.2 | The level of expressed mRNA in the presence of chemical substance/The level of expressed mRNA in the absence of chemical substance (yeast gene YJR008W, incubated two hours with chemical substance): 1.4 | The level of expressed mRNA in the presence of chemical substance/The level of expressed mRNA in the absence of chemical substance (yeast gene YJR054W, incubated two hours with chemical substance): 0.7 | The level of expressed mRNA in the presence of chemical substance/The level of expressed mRNA in the absence of chemical substance (yeast gene YKL071W): 40.3 | The level of expressed mRNA in the presence of chemical substance/The level of expressed mRNA in the absence of chemical substance (yeast gene YKL086W, incubated two hours with chemical substance): 0.7 | The level of expressed mRNA in the presence of chemical substance/The level of expressed mRNA in the absence of chemical substance (yeast gene YKL151C, incubated two hours with chemical substance): 2.3
